Reference: patent US20240376080A1, “COMPOUND AS TYK2/JAK1 PSEUDOKINASE DOMAIN INHIBITOR, AND SYNTHESIS AND USE METHODS” (ZHEJIANG WENDA PHARMACEUTICAL TECHNOLOGY CO., LTD., priority 2021, published 2024)

Experiments:
TYK2 (JH1) = TYK2 (JH1) (Homo sapiens (Human), UniProt P29597); test: Kinase (JH1) experiment, TYK2; assay type: biochemical; details: kinase domain
Description: 1.2. Kinase (JH1) Experiment Operation was as Follows:
1.2.1. Dissolve the compound with DMSO to a storage concentration of 10 mM.
1.2.2. Prepare a compound with a concentration of 100 times the final concentration in a compound dilution plate by diluting it from the highest concentration point for a total of 4 concentration points using a 27 times dilution method, and transfer it to the Echo plate.
1.2.3. Use an Echo instrument to pulse the compound from the Echo plate to a 384 experimental plate, thereby obtain the compound with 11 concentration points of the 3-fold dilution matrix.
1.2.4. Configure a 2× kinase working solution and add it to a 384-well experimental plate at 5 uL per well. Incubate the compound and the kinase at room temperature for 15 minutes.
1.2.5. Add 5 ul 2× substrate (containing ATP) to the 384 well plate.
1.2.6. Incubate at room temperature for 45 minutes.
1.2.7. Add the detection reagent mixture to the 384-well plate, centrifuge for 30 seconds, and incubate at room temperature for 60 minutes.
1.2.8. Read the signal values using Envision Microplate Reader (PerkinElmer).
1.3.1. Use XL-Fit software for data analysis to obtain IC50 of the compounds, see Table 2 for results.

[1] = test system: IFN-α/pSTAT5 in CD3+ cells (human PBMC); test: Inhibitory effect on expression of pSTAT5 in CD3+ cells using FACS detection (IFN-α stimulated); assay type: cell-based; details: IFN-α 30 ng/ml
Description: Test Example 1: The Inhibitory Effect of Compounds on the Expression of pSTAT5 in CD3+Cells Using FACS Detection
• DMSO, Sigma, Cat #D2650-100 mL, stored at room temperature. • Perm buffer III, BD Biosciences, Cat #558050, stored at 4° C. • Lyse/Fix buffer, BD Biosciences, Cat #558049, stored at room temperature. • EDTA, Invitrogen, Cat #15575-038, stored at room temperature. • PBS, Hyclone, Cat #SH30256.01, stored at 4° C. • PE Mouse Anti-Human CD3, BD Biosciences, Cat #555333, stored at 4° C. • Mouse anti-human Phosphorylation-STAT5 (pY694) (Alexa Fluor® 647 Conjugate), BD Biosciences, Cat #562076, stored at 4° C. • IFN-α, Biolegend, Cat #592702
1) On the day of experiment, the compound was prepared into a 10 mM solution with DMSO, diluted to 1.5 mM in DMSO, and then diluted to 8 gradient concentrations in 3-fold dilutions.
2) 5 μL of the diluted compound was transferred into 120 ul of DPBS solution containing 0.1% BSA.
3) Positive and negative control groups were set up, with the addition of 0.2% DMSO to the positive and negative control groups.
1) Add 0.5 million and 67.5 uL of human PBMC cells to each well of the 96-well cell culture plate.
2) Add 3.5 uL of diluted compound and mix well.
3) Incubate in a 37° C. incubator for 60 minutes.
4) Dilute IFN-alpha in DPBS containing 0.1% BSA to 600 ng/mL, and dilute PE-anti-hCD3 antibody in DPBS containing 0.1% BSA to 3 fold. After the above incubation for 60-minute, add diluted PE-anti-hCD3 antibody at 5 uL per well and add diluted IFN-α at 4 uL per well, i.e., the final concentration of IFN-α per well was 30 ng/ml.
5) Incubate in a 37° C. incubator for 30 minutes.
6) Transfer all cells to a 96-well deep well plate and add 1 mL of 37° C. preheated lysis/fix buffer.
7) Incubate at 37° C. in dark for 10 minutes.
8) Centrifuge at 600 g for 5 minutes and then discard the supernatant. Wash by adding 1 mL of PBS for twice and centrifuge.
9) Add 1 mL of Perm buffer III to the cell precipitation.
10) Incubate at 4° C. in dark for 30 minutes.
11) Centrifuge at 600 g for 5 minutes and then discard the supernatant. Wash by adding 1 mL of PBS for twice and centrifuge.
12) Dilute APC anti-human pSTAT5 antibody in staining buffer for 200 fold, and add it to cell well at 100 uL per well and mix well.
13) Incubate at room temperature for 40 minutes.
14) Wash twice by adding staining buffer with 1 mL for each well, and centrifuge at 600 g for 5 minutes.
15) Discard the supernatant, and re-suspend the cell precipitation in 300 uL of staining buffer.
16) Sample and analyze in a flow cytometer to obtain the IC50 of the samples to be tested, Table 1.

Sequence of TYK2 (JH1) (P29597 897-1176): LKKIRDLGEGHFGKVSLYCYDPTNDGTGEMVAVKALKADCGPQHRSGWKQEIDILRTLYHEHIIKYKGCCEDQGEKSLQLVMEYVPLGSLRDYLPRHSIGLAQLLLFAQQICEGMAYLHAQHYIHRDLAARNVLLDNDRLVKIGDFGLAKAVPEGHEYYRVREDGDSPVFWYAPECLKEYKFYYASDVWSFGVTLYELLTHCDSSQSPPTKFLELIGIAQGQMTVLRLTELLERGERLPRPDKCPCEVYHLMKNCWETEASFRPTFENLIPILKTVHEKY

| IC50 (TYK2 (JH1)) [nM] | SMILES | IC50 [1] [nM] |
| --- | --- | --- |
| > 9950 | [2H]C([2H])([2H])NC(=O)c1cnc(NC(=O)[C@H]2CC23CC3)cc1Nc1cccc(-c2ncn(C)n2)c1OC [Compound 4S] | 4.1 |
| > 9950 | [2H]C([2H])([2H])NC(=O)c1nnc(NC(=O)[C@H]2CC23CC3)cc1Nc1cccc(-c2ncn(C)n2)c1OC [Compound 1S] | 4.2 |
| > 9950 | [2H]C([2H])([2H])NC(=O)c1nnc(NC(=O)[C@H]2CC23CC3)cc1Nc1nccc(-c2ncn(C)n2)c1OC [Compound 2S] | 3.9 |
| > 9950 | [2H]C([2H])([2H])NC(=O)c1nnc(NC(=O)[C@@H]2CC23CC3)cc1Nc1cccc(-c2ncn(C)n2)c1OC [Compound 1R] | 6.3 |
| – | [2H]C([2H])([2H])NC(=O)c1nnc(NC(=O)C2CC23CC3)cc1Nc1nccc(-c2noc(COC)n2)c1OC (centres unmarked) [Compound 5] | 13 |
| – | [2H]C([2H])([2H])NC(=O)c1nnc(NC(=O)[C@H]2CC23CC3)cc1Nc1cccc(-c2noc(COC)n2)c1OC [Compound 3S] | 22.8 |
| > 9950 | [2H]C([2H])([2H])NC(=O)c1cnc(NC(=O)[C@@H]2CC23CC3)cc1Nc1cccc(-c2ncn(C)n2)c1OC [Compound 4R] | 5.3 |
| > 9950 | [2H]C([2H])([2H])NC(=O)c1nnc(NC(=O)[C@@H]2CC23CC3)cc1Nc1nccc(-c2ncn(C)n2)c1OC [Compound 2R] | 5.7 |
